Data as given in paper PMC4645114, “Discovery of Novel ROCK1 Inhibitors via Integrated Virtual Screening Strategy and Bioassays” (Scientific Reports, 2015).
Where “and” joins values, the source holds several entries; their conditions need not be identical. Equal values may be shown once. Values belong to the molecule of their own block, whether it stands above or below them.

What was measured:
[1] = molecular target: T1, ROCK1 (Homo sapiens, UniProt Q13464); experiment: Z′-LYTE kinase assay, ROCK1 enzyme activity; type: biochemical
T1 construct: 15 μl kinase reaction volume with 5 ng ROCK1 enzyme
Experimental: Kinase inhibition was measured by using the Z′-LYTE™ Kinase Assay Kit with Ser/Thr 7 peptide substrate (Invitrogen, cat. PV3180). Compounds were tested on three individual times with eight point dilutions performed in duplicate to determine the average IC50 values. The assay conditions were optimized to 15 μl kinase reaction volume with 5 ng ROCK1 enzyme in 50 mM HEPES (pH = 7.5), 10 mM MgCl2, 0.01% Brij-35 and 1 mM EGTA. Initially, the reaction was incubated for 1 hour at room temperature in the presence of 1.5 μM peptide substrate and 12.5 μM ATP for ROCK1. Then, 5 μL development reagent A was added and the assay plate was incubated for another 1 hour. Finally, […] stop reagent was added and the assay plate was shaken for 1 hour. The coumarin (ex. 400 nm, em. 445 nm) and fluorescein (ex. 400 nm, em. 520 nm) emission signals were measured on a fluorescence plate reader (Thermo Scientific Varioskan Flash).

[2] = system: phosphorylation of cofilin (ROCK pathway) in HUVEC; experiment: Western blotting of cofilin phosphorylation in HUVEC; type: cell-based, Human; settings: compared with the control group
Experimental: Human umbilical vein endothelial cells (HUVEC, ATCC, Manassas, USA) were cultured and maintained in the F-12 K medium with 2 mM L-glutamine, 1.5 g/L sodium bicarbonate, 100 μg/mL heparin, 30 μg/mL endothelial cell growth supplement and 10% fetal bovine serum (FBS) at 37 °C in a humidified atmosphere of 5% CO2. Cells were exposed to culture medium with 10% FBS for at least 1 day before experiments. Only 3–6 passages of cells were used in this study.
HUVEC was pretreated with different targeted compounds (TS-15 and TS-40) for 1 hour. Y27632 and 0.2% DMSO were used as the positive control and vehicle control, respectively. After drug treatment, cells were washed with pre-cold PBS and lysed on ice with RIPA lysis buffer for 30 min, followed by centrifugation at 12,500 g for 20 min at 4 °C. The supernatant was collected and protein concentration was determined using the BCA protein assay kit (Thermo Scientific Pierce). Aliquots of protein samples were boiled for 5 min at 95 °C and electrophoresed on 10% SDS-PAGE and then transferred to a polyvinylidene difluoride membrane (Bio-Rad, Hercules, CA, USA). Subsequently, the membrane was blocked with 5% (w/v) nonfat milk in TBS-T buffer for 1 hour at room temperature. The blots were incubated overnight at 4 °C with primary antibodies. After being washed with TBS-T for 20 min at room temperature, the membranes were further incubated with horseradish peroxidase-conjugated secondary antibodies for 2 hours at room temperature. Finally, protein bands were visualized using ECL Plus Western blotting detection reagents (GE Healthcare, Piscataway, NJ, USA). The membranes were then scanned on a Bio-Rad ChemiDoc imaging system and the intensity of the protein bands was analyzed using the Bio-Rad Image Lab software.

[3] = system: zebrafish embryos; experiment: Atorvastatin-induced cerebral hemorrhage in zebrafish; type: in vivo; set-up: hemorrhage changes compared with the disease model group: dose or concentration left out as unconfirmed; settings: for Cerebral hemorrhage rate (%): then atorvastatin 24 hours; for hemorrhage changes compared with the disease model group: atorvastatin 24 hours
Experimental: Tg (fli1a:EGFP)y1; Tg (gata1a:dsRed)sd2 homozygous double transgenic zebrafish was used and maintained as described in our previous study. […] The animal experiments were carried out in “accordance” with the approved guidelines of the Animal Research Ethics Committee, University of Macau and approved by the Animal Research Ethics Committee, University of Macau.
Tg (fli1a:EGFP)y1; Tg (gata1a:dsRed)sd2 homozygous double transgenic zebrafish embryos at 22 hours post-fertilization (hpf) were pretreated with the targeted compounds (TS 15 and TS 40) for 2 hours. During this period, the positive control group was treated with […] Y27632 while the vehicle control group was given with 0.2% DMSO (solvent). Then, all the pretreated embryos washed with PBS for 3 times and challenged with 1 mM atorvastatin for 24 hours according to the reported protocol with small modifications. After that, the viability and cerebral hemorrhage changes were observed using a fluorescence microscope (Olympus IX81 Motorized Inverted Microscope, Japan) equipped with a digital camera (DP controller, Soft Imaging System, Olympus, Germany). The results were analyzed with Axiovision 4.2 (Soft Imaging System, Olympus, Germany) and the public-domain Image J software (Rasband WS, Image J; US National Institutes of Health, Bethesda, MD). The cerebral hemorrhage rate of each group was calculated by the number of zebrafish with cerebral hemorrhage to the total number of each group.

[4] = ROCK1, 12.5 μM ATP, 8-point dilutions, three individual times

T1 sequence (Q13464 whole entry): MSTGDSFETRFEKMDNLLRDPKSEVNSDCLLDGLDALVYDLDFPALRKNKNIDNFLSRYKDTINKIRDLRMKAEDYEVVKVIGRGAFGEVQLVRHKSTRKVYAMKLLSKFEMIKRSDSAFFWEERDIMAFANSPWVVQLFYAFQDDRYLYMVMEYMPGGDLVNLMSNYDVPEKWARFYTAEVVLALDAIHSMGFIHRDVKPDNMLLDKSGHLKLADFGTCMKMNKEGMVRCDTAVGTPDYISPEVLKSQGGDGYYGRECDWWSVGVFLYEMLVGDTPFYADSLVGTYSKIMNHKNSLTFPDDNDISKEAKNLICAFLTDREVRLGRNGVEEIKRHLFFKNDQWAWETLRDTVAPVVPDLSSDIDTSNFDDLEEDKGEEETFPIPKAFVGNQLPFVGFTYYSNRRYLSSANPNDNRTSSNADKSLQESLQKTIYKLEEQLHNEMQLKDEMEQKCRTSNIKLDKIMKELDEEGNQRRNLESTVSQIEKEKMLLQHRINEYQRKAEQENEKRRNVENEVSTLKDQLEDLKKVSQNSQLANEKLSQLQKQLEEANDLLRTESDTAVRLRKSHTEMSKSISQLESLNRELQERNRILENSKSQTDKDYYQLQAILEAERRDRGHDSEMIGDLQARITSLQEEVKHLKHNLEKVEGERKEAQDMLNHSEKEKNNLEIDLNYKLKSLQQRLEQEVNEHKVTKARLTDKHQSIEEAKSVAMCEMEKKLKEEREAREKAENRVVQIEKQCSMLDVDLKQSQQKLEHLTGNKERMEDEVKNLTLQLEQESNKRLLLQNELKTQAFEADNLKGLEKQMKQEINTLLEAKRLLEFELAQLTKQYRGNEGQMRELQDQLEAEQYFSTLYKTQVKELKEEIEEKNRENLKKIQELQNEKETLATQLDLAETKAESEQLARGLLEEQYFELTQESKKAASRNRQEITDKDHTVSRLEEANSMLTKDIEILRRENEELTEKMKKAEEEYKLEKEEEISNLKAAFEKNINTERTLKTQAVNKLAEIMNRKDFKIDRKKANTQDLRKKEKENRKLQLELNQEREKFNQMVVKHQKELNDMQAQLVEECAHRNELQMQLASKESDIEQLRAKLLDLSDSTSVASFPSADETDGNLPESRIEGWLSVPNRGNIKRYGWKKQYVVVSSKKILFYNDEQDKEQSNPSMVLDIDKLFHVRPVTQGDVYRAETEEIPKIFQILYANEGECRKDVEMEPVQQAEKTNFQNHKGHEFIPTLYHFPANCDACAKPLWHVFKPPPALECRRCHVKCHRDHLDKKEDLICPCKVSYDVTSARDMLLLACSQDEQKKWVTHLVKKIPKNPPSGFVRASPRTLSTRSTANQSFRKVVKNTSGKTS

SMILES: O=S(=O)(c1ccccc1)c1ccc(-c2ccnc3[nH]ccc23)cc1 [TS-f13]
IC50 [1, 4]: 3.2 ± 1.06 µM

SMILES: OC(CN1CCOCC1)c1ccc(-c2ccnc3[nH]ccc23)cc1 (stereo not shown) [TS-15]
phosphorylation level of cofilin (p-cofilin band, ratio to T-cofilin) [2]: significant inhibitory effects
Cerebral hemorrhage rate (%) ([3]; 6 μM pretreatment): 79.3 ± 5.9%
Cerebral hemorrhage rate (%) ([3]; 20 μM pretreatment): 73.5 ± 13.0 %
Cerebral hemorrhage rate (%) ([3]; 60 μM pretreatment): <60 ^b,* %
hemorrhage changes compared with the disease model group [3]: obviously abated
inhibitory rate against cerebral hemorrhage ([3]; dose of 6 μM): 79.3%
inhibitory rate against cerebral hemorrhage ([3]; dose of 20 μM): 73.5%
toxicity to zebrafish ([3]; dose of 20 μM): relatively safe
inhibitory rate against cerebral hemorrhage ([3]; dose of 60 μM): < 60%
toxicity to zebrafish ([3]; dose of 60 μM): toxic
IC50 [1, 4]: < 1 µM and 0.25 µM
IC50 ([1]; ROCK1, value given in text): < 0.3 µM

SMILES: Cn1ncc2cc(-c3ccnc4[nH]ccc34)ccc21 [TS-f22]
IC50 [1, 4]: < 1 µM and 0.48 µM

SMILES: NCC1CCN(Cc2ccc(-c3nc(-c4ccncc4)cc(=O)[nH]3)cc2)CC1 [TS-f7]
IC50 [1, 4]: 28.3 ± 0.99 µM

SMILES: CN(Cc1cccc(C(=O)Nc2ccc3[nH]ncc3c2)c1)Cc1cc[nH]n1 [TS-f6]
IC50 [1, 4]: 12.4 ± 0.85 µM

SMILES: O=C(NCCc1c[nH]cn1)c1coc(COc2cccc3cnccc23)n1 [TS-f10]
IC50 [1, 4]: 31.4 ± 1.63 µM

SMILES: Cc1nc(-c2cccc(-c3ccnc4[nH]ccc34)c2)no1 [TS-f26]
IC50 [1, 4]: 3.48 ± 1.65 µM

SMILES: CCCCNC(=O)c1ccc(-c2ccnc3[nH]ccc23)o1 [TS-f32]
IC50 [1, 4]: 2.21 ± 0.21 µM

SMILES: CN(Cc1cc(F)ccc1O)Cc1cccc2cnccc12 [TS-f28]
IC50 [1, 4]: 23.05 ± 0.07 µM

SMILES: COCc1nc2cc(-c3ccnc4[nH]ccc34)ccc2o1 [TS-f25]
IC50 [1, 4]: 4.42 ± 1.14 µM

SMILES: c1cc(OCCn2ccnc2)cc(-c2ccnc3[nH]ccc23)c1 [TS-f37]
IC50 [1, 4]: 1.82 ± 0.76 µM

SMILES: OCCCNCc1cccc(-c2ccnc3[nH]ccc23)c1 [TS-f5]
IC50 [1, 4]: 1.55 ± 0.57 µM

SMILES: C[C@@H](N)[C@H]1CC[C@H](C(=O)Nc2ccncc2)CC1 [Y27632, reference compound]
phosphorylation level of cofilin (p-cofilin band, ratio to T-cofilin) [2]: reduced significantly
Cerebral hemorrhage rate (%) ([3]; 10 μM pretreatment): 74.4 ± 8.7 %
hemorrhage changes compared with the disease model group [3]: obviously abated
inhibitory rate against cerebral hemorrhage ([3]; dose of 10 μM): 74.4%

Now from value to molecule, other results behind:

IC50 [1, 4]: 67.2 ± 0.57 µM
SMILES: O=c1[nH]c2ccc(-c3cc(NC4CCCC4)nc4[nH]ccc34)cc2[nH]c1=O [TS-11]

IC50 [1, 4]: 26.5 ± 1.13 µM
SMILES: CNc1cc(-c2ccccc2OCCn2ccnc2)c2cc[nH]c2n1 [TS-27]

IC50 [1, 4]: 6.71 ± 1.48 µM
SMILES: Nc1cc(-c2ccc(C3(O)CCNCC3)cc2)c2cc[nH]c2n1 [TS-28]

IC50 [1, 4]: 9.94 ± 4.33 µM
SMILES: COCCNc1cc(-c2ccc(C3(O)CCNCC3)cc2)c2cc[nH]c2n1 [TS-16]

IC50 [1, 4]: < 1 µM and 0.15 µM
IC50 ([1]; ROCK1, value given in text): < 0.3 µM
SMILES: NS(=O)(=O)c1ccc(-c2ccnc3[nH]ccc23)c(F)c1 [TS-40]
phosphorylation level of cofilin (p-cofilin band, ratio to T-cofilin) [2]: significant inhibitory effects
Cerebral hemorrhage rate (%) ([3]; 6 μM pretreatment): 90.6 ± 7.4%
Cerebral hemorrhage rate (%) ([3]; 20 μM pretreatment): 78.8 ± 7.1 %
Cerebral hemorrhage rate (%) ([3]; 60 μM pretreatment): 66.2 ± 7.2 %
hemorrhage changes compared with the disease model group [3]: obviously abated
inhibitory rate against cerebral hemorrhage ([3]; dose of 20 μM): 78.8%
inhibitory rate against cerebral hemorrhage ([3]; dose of 60 μM): 66.2%
